Source: patent publication US11111251B2, “Positive allosteric modulators of the muscarinic acetylcholine receptor M1” (Vanderbilt University, priority 2016, dated 2021)

Target: T1, human mAChR M1 (Homo sapiens, UniProt P11229)
T1 sequence (P11229 1-460): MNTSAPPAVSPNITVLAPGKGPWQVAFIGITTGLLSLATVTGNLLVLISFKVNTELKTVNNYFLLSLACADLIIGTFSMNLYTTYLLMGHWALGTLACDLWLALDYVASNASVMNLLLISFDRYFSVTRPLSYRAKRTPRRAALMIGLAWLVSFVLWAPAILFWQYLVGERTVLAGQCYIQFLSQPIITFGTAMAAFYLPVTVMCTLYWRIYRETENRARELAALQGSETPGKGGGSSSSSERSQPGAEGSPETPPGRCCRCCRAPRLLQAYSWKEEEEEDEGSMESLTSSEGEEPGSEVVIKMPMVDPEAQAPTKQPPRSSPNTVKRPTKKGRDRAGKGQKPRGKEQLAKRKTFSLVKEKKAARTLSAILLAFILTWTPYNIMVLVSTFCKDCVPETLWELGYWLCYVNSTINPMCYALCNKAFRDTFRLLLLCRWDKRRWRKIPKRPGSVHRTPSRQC
Assay: mAChR M1 cell-based functional assay: calcium mobilization, positive allosteric modulator mode (increase in EC20 acetylcholine response)
Conditions: Table 2, human M1; for EC50: read-out: Human M1 EC50; for Emax: read-out: Human M1 Emax (%)
Summary of the method: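 Calcium-flux assay in CHO-K1 cells stably expressing human M1, loaded with Fluo-4 AM (50 min, 37 °C) and read at 1 Hz. Compound (11-point, 1:3 series) was added at 4 s, EC20 acetylcholine at 144 s and EC80 at 230 s. PAM activity is the concentration-dependent rise in the EC20 response, fitted with a four-parameter logistic.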

Cn1cc(-c2ccc(Cc3cc(C(=O)NC4CC5(COC5)C4)nc4ccsc34)cc2)nn1 [Compound 175, 7-[[4-(1-methyltriazol-4-yl)phenyl]methyl]-N-(2-oxaspiro[3.3]heptan-6-yl)thieno[3,2-b]pyridine-5-carboxamide]
EC50: 17.7 nM
Emax: 84.3%

Cc1nc(-c2ccc(Cc3cc(C(=O)N[C@@H]4CC[C@H]4O)nc4ccsc34)cc2)cs1 [Compound 176, N-[(1R,2R)-2-hydroxycyclobutyl]-7-[[4-(2-methylthiazol-4-yl)phenyl]methyl]thieno[3,2-b]pyridine-5-carboxamide]
EC50: 362 nM
Emax: 93.2%

Cc1nc(-c2ccc(Cc3cc(C(=O)NC4(C)COC4)nc4ccsc34)cc2)cs1 [Compound 177, N-(3-methyloxetan-3-yl)-7-[[4-(2-methylthiazol-4-yl)phenyl]methyl]thieno[3,2-b]pyridine-5-carboxamide]
EC50: > 10000 nM
Emax: 39.7%

Cc1nc(-c2ccc(Cc3cc(C(=O)NC4CC5(COC5)C4)nc4ccsc34)cc2)cs1 [Compound 178, 7-[[4-(2-methylthiazol-4-yl)phenyl]methyl]-N-(2-oxaspiro[3.3]heptan-6-yl)thieno[3,2-b]pyridine-5-carboxamide]
EC50: 652 nM
Emax: 86%

Cc1nc(-c2ccc(Cc3cc(C(=O)NC4CN(C(C)(C)C)C4)nc4ccsc34)cc2)cs1 [Compound 179, N-(1-tert-butylazetidin-3-yl)-7-[[4-(2-methylthiazol-4-yl)phenyl]methyl]thieno[3,2-b]pyridine-5-carboxamide]
EC50: 3800 nM
Emax: 65.2%

COC1CC(NC(=O)c2cc(Cc3ccc(-c4csc(C)n4)cc3)c3sccc3n2)C1 (stereo not drawn) [Compound 180, N-(3-methoxycyclobutyl)-7-[[4-(2-methylthiazol-4-yl)phenyl]methyl]thieno[3,2-b]pyridine-5-carboxamide]
EC50: 3300 nM
Emax: 72.1%

Cc1nc(-c2ccc(Cc3cc(C(=O)NC4CC(F)C4)nc4ccsc34)cc2)cs1 (stereo not drawn) [Compound 181, N-(3-fluorocyclobutyl)-7-[[4-(2-methylthiazol-4-yl)phenyl]methyl]thieno[3,2-b]pyridine-5-carboxamide]
EC50: 3820 nM
Emax: 64%

Cc1nc(-c2ccc(Cc3cc(C(=O)N[C@@H]4CCC[C@H]4O)nc4ccsc34)cc2)cs1 [Compound 182, N-[(1R,2R)-2-hydroxycyclopentyl]-7-[[4-(2-methylthiazol-4-yl)phenyl]methyl]thieno[3,2-b]pyridine-5-carboxamide]
EC50: 183 nM
Emax: 84%

Cc1nc(-c2ccc(Cc3cc(C(=O)N[C@@H]4CCOC4)nc4ccsc34)cc2)cs1 [Compound 183, 7-[[4-(2-methylthiazol-4-yl)phenyl]methyl]-N-[(3R)-tetrahydrofuran-3-yl]thieno[3,2-b]pyridine-5-carboxamide]
EC50: 2530 nM
Emax: 67.3%

Cc1nc(-c2ccc(Cc3cc(C(=O)N[C@H]4CCOC4)nc4ccsc34)cc2)cs1 [Compound 184, 7-[[4-(2-methylthiazol-4-yl)phenyl]methyl]-N-[(3S)-tetrahydrofuran-3-yl]thieno[3,2-b]pyridine-5-carboxamide]
EC50: 3610 nM
Emax: 68.5%

Cc1nc(-c2ccc(Cc3cc(C(=O)NC4CCCCC4)nc4ccsc34)cc2)cs1 [Compound 185, N-cyclohexyl-7-[[4-(2-methylthiazol-4-yl)phenyl]methyl]thieno[3,2-b]pyridine-5-carboxamide]
EC50: 4230 nM
Emax: 52.1%

Cc1nc(-c2ccc(Cc3cc(C(=O)NC4CCCN(C)C4)nc4ccsc34)cc2)cs1 (stereo not drawn) [Compound 186, N-(1-methyl-3-piperidyl)-7-[[4-(2-methylthiazol-4-yl)phenyl]methyl]thieno[3,2-b]pyridine-5-carboxamide]
EC50: 3290 nM
Emax: 74.2%

Cc1nc(-c2ccc(Cc3cc(C(=O)NC4CCN(C)CC4)nc4ccsc34)cc2)cs1 [Compound 187, N-(1-methyl-4-piperidyl)-7-[[4-(2-methylthiazol-4-yl)phenyl]methyl]thieno[3,2-b]pyridine-5-carboxamide]
EC50: 3200 nM
Emax: 72.1%

Cc1nc(-c2ccc(Cc3cc(C(=O)N[C@@H]4CCCOC4)nc4ccsc34)cc2)cs1 [Compound 188, 7-[[4-(2-methylthiazol-4-yl)phenyl]methyl]-N-[(3R)-tetrahydropyran-3-yl]thieno[3,2-b]pyridine-5-carboxamide]
EC50: 1790 nM
Emax: 83.2%

Cc1nc(-c2ccc(Cc3cc(C(=O)N[C@H]4CCCOC4)nc4ccsc34)cc2)cs1 [Compound 189, 7-[[4-(2-methylthiazol-4-yl)phenyl]methyl]-N-[(3S)-tetrahydropyran-3-yl]thieno[3,2-b]pyridine-5-carboxamide]
EC50: 6270 nM
Emax: 72%

Cc1nc(-c2ccc(Cc3cc(C(=O)N(C)C4CCOCC4)nc4ccsc34)cc2)cs1 [Compound 190]
EC50: 6140 nM
Emax: 75.5%

Cc1nc(-c2ccc(Cc3cc(C(=O)NC4CCOCC4)nc4ccsc34)cc2)cs1 [Compound 191, 7-[[4-(2-methylthiazol-4-yl)phenyl]methyl]-N-tetrahydropyran-4-yl-thieno[3,2-b]pyridine-5-carboxamide]
EC50: 247 nM
Emax: 86.9%

Cc1nc(-c2ccc(Cc3cc(C(=O)N[C@H]4CCOC[C@@H]4O)nc4ccsc34)cc2)cs1 [Compound 192, N-[(3R,4S)-3-hydroxytetrahydropyran-4-yl]-7-[[4-(2-methylthiazol-4-yl)phenyl]methyl]thieno[3,2-b]pyridine-5-carboxamide]
EC50: 15.3 nM
Emax: 78.7%

Cc1nc(-c2ccc(Cc3cc(C(=O)N[C@H]4COCC[C@@H]4O)nc4ccsc34)cc2)cs1 [Compound 193, N-[(3S,4S)-4-hydroxytetrahydropyran-3-yl]-7-[[4-(2-methylthiazol-4-yl)phenyl]methyl]thieno[3,2-b]pyridine-5-carboxamide]
EC50: 31.1 nM
Emax: 85.7%

Cc1nc(-c2ccc(Cc3cc(C(=O)N[C@H]4CCCC[C@@H]4O)nc4ccsc34)cc2)cs1 [Compound 194, N-[(1S,2S)-2-hydroxycyclohexyl]-7-[[4-(2-methylthiazol-4-yl)phenyl]methyl]thieno[3,2-b]pyridine-5-carboxamide]
EC50: 59.6 nM
Emax: 80.7%

CO[C@H]1CCCC[C@@H]1NC(=O)c1cc(Cc2ccc(-c3csc(C)n3)cc2)c2sccc2n1 [Compound 195, N-[(1S,2S)-2-methoxycyclohexyl]-7-[[4-(2-methylthiazol-4-yl)phenyl]methyl]thieno[3,2-b]pyridine-5-carboxamide]
EC50: 2390 nM
Emax: 81.8%

Cc1nc(-c2ccc(Cc3cc(C(=O)N[C@H]4CCCCC[C@@H]4O)nc4ccsc34)cc2)cs1 [Compound 196, N-[(1S,2S)-2-hydroxycycloheptyl]-7-[[4-(2-methylthiazol-4-yl)phenyl]methyl]thieno[3,2-b]pyridine-5-carboxamide]
EC50: 234 nM
Emax: 81.3%

Cc1nc(-c2ccc(Cc3cc(C(=O)NC4CCN5CCCC45)nc4ccsc34)cc2)cs1 (stereo not drawn) [Compound 197, N-(hexahydro-1H-pyrrolizin-1-yl)-7-[[4-(2-methylthiazol-4-yl)phenyl]methyl]thieno[3,2-b]pyridine-5-carboxamide]
EC50: 1380 nM
Emax: 80.8%

Cc1nc(-c2ccc(Cc3cc(C(=O)NC4CCCNC4=O)nc4ccsc34)cc2)cs1 (stereo not drawn) [Compound 198, 7-[[4-(2-methylthiazol-4-yl)phenyl]methyl]-N-(2-oxo-3-piperidyl)thieno[3,2-b]pyridine-5-carboxamide]
EC50: 484 nM
Emax: 90%

Cc1nc(-c2ccc(Cc3cc(C(=O)NC4CCCCNC4=O)nc4ccsc34)cc2)cs1 (stereo not drawn) [Compound 199, 7-[[4-(2-methylthiazol-4-yl)phenyl]methyl]-N-(2-oxoazepan-3-yl)thieno[3,2-b]pyridine-5-carboxamide]
EC50: 1420 nM
Emax: 88.1%

O=C(N[C@@H]1CC[C@H]1O)c1cc(Cc2ccc(-c3cscn3)cc2)c2sccc2n1 [Compound 200, N-[(1R,2R)-2-hydroxycyclobutyl]-7-[(4-thiazol-4-ylphenyl)methyl]thieno[3,2-b]pyridine-5-carboxamide]
EC50: 116 nM
Emax: 89.4%

O=C(NC12CC(C1)C2)c1cc(Cc2ccc(-c3cscn3)cc2)c2sccc2n1 [Compound 201, N-(3-bicyclo[1.1.1]pentanyl)-7-[(4-thiazol-4-ylphenyl)methyl]thieno[3,2-b]pyridine-5-carboxamide]
EC50: > 10000 nM
Emax: 38.5%

O=C(NC1COC1)c1cc(Cc2ccc(-c3cscn3)cc2)c2sccc2n1 [Compound 202, N-(oxetan-3-yl)-7-[(4-thiazol-4-ylphenyl)methyl]thieno[3,2-b]pyridine-5-carboxamide]
EC50: 1370 nM
Emax: 63.7%

CC(C)(C)N1CC(NC(=O)c2cc(Cc3ccc(-c4cscn4)cc3)c3sccc3n2)C1 [Compound 203, N-(1-tert-butylazetidin-3-yl)-7-[(4-thiazol-4-ylphenyl)methyl]thieno[3,2-b]pyridine-5-carboxamide]
EC50: 2200 nM
Emax: 75.3%

COC1CC(NC(=O)c2cc(Cc3ccc(-c4cscn4)cc3)c3sccc3n2)C1 (stereo not drawn) [Compound 204, N-(3-methoxycyclobutyl)-7-[(4-thiazol-4-ylphenyl)methyl]thieno[3,2-b]pyridine-5-carboxamide]
EC50: 897 nM
Emax: 83.5%
